Key:
[1] = Apparent intrinsic clearance in cryopreserved human hepatocytes measured per million cells at 1 uM incubated for 4 hrs by LC-MS/MS analysis; format: ADME, cell-based, Hepatocyte; details: cryopreserved human hepatocytes, read-out: CLH
[2] = target: T1, Cytochrome P450 1A2 (Homo sapiens, UniProt P05177); assay: Reversible inhibition of CYP1A2 in pooled human liver microsomes using […] as substrate incubated for 20 mins in presence of NADPH by HPLC-MS/MS analysis; format: ADME, Microsome
T1 sequence (P05177 whole entry): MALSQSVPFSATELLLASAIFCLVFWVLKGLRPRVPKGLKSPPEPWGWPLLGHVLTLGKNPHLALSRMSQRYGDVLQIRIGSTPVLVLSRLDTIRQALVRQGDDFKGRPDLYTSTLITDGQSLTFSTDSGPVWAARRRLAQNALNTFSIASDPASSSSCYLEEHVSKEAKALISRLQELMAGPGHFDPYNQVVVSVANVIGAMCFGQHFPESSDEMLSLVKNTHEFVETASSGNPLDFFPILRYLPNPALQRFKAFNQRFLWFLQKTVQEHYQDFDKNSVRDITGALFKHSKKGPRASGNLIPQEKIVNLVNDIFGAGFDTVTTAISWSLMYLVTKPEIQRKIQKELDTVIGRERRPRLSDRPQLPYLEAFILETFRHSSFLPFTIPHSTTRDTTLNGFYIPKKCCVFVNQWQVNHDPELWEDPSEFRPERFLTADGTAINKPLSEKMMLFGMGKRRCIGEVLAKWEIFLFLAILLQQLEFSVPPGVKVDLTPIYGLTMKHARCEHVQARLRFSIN

[3] = target: T2, Cytochrome P450 2B6 (Homo sapiens, UniProt P20813); assay: Reversible inhibition of CYP2B6 in pooled human liver microsomes; format: ADME, Microsome
T2 sequence (P20813 whole entry): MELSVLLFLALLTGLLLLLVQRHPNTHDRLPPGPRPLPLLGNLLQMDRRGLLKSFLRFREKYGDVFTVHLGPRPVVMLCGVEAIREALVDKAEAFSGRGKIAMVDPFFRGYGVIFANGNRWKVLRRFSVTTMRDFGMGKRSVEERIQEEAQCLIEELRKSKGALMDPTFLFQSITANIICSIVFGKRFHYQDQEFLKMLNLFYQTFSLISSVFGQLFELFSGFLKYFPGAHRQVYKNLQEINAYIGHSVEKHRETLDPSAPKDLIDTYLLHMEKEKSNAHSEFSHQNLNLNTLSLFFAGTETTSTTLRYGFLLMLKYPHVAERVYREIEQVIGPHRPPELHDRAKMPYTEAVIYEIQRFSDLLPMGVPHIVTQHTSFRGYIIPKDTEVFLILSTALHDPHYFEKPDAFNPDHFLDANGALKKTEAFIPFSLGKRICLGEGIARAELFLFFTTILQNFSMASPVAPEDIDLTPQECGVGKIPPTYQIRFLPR

[4] = target: Cytochrome P450 2C19 (Homo sapiens, UniProt P33261); assay: Reversible inhibition of CYP2C19 in pooled human liver microsomes using 4-Hydroxymephenytoin as substrate incubated for 20 mins in presence of NADPH by HPLC-MS/MS analysis; format: ADME, Microsome
[5] = Oral bioavailability in Wistar Han rat at 5 mg/kg; format: ADME, organism-based; details: in vivo
[6] = Half life in human; format: ADME
[7] = target: T3, Diacylglycerol O-acyltransferase 2 (Rattus norvegicus, UniProt Q5FVP8); assay: Inhibition of rat DGAT2 using [1-14C]decanoyl-CoA and 1,2-didecanoyl-sn-glycerol as substrates assessed as incorporation of [1-14C]decanoyl into triacylglycerol preincubated for 120 mins followed by substrate addition and measured after 40 mins by scintillation counting method
T3 sequence (Q5FVP8 whole entry): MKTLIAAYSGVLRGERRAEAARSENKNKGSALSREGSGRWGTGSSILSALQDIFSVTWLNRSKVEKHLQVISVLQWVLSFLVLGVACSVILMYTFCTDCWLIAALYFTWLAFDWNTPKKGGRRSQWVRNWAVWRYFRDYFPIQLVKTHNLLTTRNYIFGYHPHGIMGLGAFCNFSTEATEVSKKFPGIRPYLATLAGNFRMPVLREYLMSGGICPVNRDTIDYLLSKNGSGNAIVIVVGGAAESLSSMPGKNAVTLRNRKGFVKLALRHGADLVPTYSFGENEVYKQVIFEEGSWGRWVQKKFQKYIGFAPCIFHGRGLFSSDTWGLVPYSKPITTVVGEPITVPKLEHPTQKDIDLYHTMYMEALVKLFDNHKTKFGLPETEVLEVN

[8] = Inhibition of [14C]-glycerol incorporation into triglycerides in human primary hepatocytes; format: functional, cell-based; details: hepatocyte
[9] = Inhibition of [14C]-glycerol incorporation into triglycerides in monkey primary hepatocytes; format: functional, cell-based, Macaca mulatta; details: hepatocyte
[10] = Plasma clearance in Wistar Han rat at 1 mg/kg, iv; format: ADME, organism-based
[11] = Volume of distribution at steady state in Wistar Han rat at 1 mg/kg, iv; format: ADME, organism-based; details: in vivo, read-out: Vdss
[12] = Half life in cynomolgus monkey at 1 mg/kg, iv; format: ADME, organism-based, Macaca fascicularis; details: in vivo
[13] = Volume of distribution at steady state in cynomolgus monkey at 1 mg/kg, iv; format: ADME, organism-based, Macaca fascicularis; details: in vivo, read-out: Vdss
[14] = Drug metabolism in rat hepatocytes assessed as O-deethylation mediated pyridin-3-ol mediated metabolite formation; format: ADME, cell-based, Hepatocyte
[15] = Drug metabolism in monkey hepatocytes assessed as O-deethylation mediated pyridin-3-ol mediated metabolite formation; format: ADME, cell-based, Macaca mulatta, Hepatocyte; details: rhesus monkey
[16] = Drug metabolism in monkey hepatocytes assessed as oxidation of THF ring mediated metabolite formation; format: ADME, cell-based, Macaca mulatta, Hepatocyte; details: rhesus monkey
[17] = In vivo inhibition of DGAT2 in sucrose diet fed Sprague-Dawley rat assessed as reduction in triglyceride level at 90 mg/kg, po administered as single dose and measured after 2 hrs relative to control; format: functional; design: scale not given: the % may be the effect or the level left
[18] = Toxicity in non-human primates assessed as development-limiting toxicity
[19] = Cardiotoxicity in non-human primates assessed as development-limiting toxicity

Cytochrome P450 2C19, sequence (P33261 whole entry): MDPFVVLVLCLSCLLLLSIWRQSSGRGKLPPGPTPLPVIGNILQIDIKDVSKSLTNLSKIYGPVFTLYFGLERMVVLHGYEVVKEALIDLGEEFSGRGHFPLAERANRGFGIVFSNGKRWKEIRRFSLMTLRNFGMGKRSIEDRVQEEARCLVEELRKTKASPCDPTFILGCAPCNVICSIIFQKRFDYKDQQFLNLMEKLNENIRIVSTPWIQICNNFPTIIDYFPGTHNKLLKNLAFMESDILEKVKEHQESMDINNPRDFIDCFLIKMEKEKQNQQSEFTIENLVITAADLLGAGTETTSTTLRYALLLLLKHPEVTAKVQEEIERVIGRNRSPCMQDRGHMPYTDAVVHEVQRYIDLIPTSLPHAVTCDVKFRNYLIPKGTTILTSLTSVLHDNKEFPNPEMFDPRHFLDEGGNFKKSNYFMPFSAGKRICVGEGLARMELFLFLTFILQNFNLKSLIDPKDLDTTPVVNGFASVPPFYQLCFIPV

CCOc1cccnc1Oc1cncc(-c2ncc(C(=O)N[C@H]3CCOC3)cn2)c1 [PF-06865571]
hepatocyte CLint at 1 µM [1]: < 4 µL/min/1e6 cells
IC50 [2]: > 100 µM
IC50 [3]: > 100 µM
IC50 [4]: 57 µM
bioavailability [5]: 31%
half-life [6]: 5 h
IC50 [7]: 0.833 µM
IC50 [8]: 0.00279 µM
IC50 [9]: 0.00213 µM
clearance [10]: 61 mL/min/kg
Vd [11]: 0.9 L/kg
half-life [12]: 1 h
Vd [13]: 0.7 L/kg
Drug metabolism [14]: Metabolite_Detected
Drug metabolism [15]: Metabolite_Detected
Drug metabolism [16]: Metabolite_Detected
Activity [17]: 76%
Activity [18]: Non-Toxic
Activity [19]: Non-Toxic

— ChEMBL document CHEMBL5096227, “Discovery of Ervogastat (PF-06865571): A Potent and Selective Inhibitor of Diacylglycerol Acyltransferase 2 for the Treatment of Non-alcoholic Steatohepatitis” (J Med Chem, 2022)
